pIC50: −log10 of the molar value.
Legend:
Assay in all cases: IC50 for competition of protein binding to Kinobeads
Settings in all cases: assay detail: Kinobeads competition in P. falciparum blood-stage lysate
UniProt Q8IAU3 = biological target: UniProt Q8IAU3
UniProt Q8IAV6 = biological target: UniProt Q8IAV6
UniProt Q8IDG3 = biological target: UniProt Q8IDG3
UniProt Q8I2X4 = biological target: UniProt Q8I2X4
UniProt C0H4K6 = biological target: UniProt C0H4K6
UniProt Q8I3Z5 = biological target: UniProt Q8I3Z5
Chain of UniProt Q8I3Z5 (Q8I3Z5 whole entry): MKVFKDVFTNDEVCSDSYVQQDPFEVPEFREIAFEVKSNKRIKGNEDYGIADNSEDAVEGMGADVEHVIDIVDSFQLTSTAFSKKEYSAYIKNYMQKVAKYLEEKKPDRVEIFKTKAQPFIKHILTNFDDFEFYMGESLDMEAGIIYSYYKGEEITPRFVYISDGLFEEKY

UniProt O96236 = biological target: UniProt O96236
UniProt O77381 = biological target: UniProt O77381
UniProt Q8IDW4 = biological target: UniProt Q8IDW4
UniProt Q8IBN5 = biological target: UniProt Q8IBN5
UniProt O96198 = biological target: UniProt O96198
UniProt Q8I2W3 = biological target: UniProt Q8I2W3
UniProt Q8I616 = biological target: UniProt Q8I616
UniProt Q8IKA6 = biological target: UniProt Q8IKA6
UniProt Q8IB31 = biological target: UniProt Q8IB31
UniProt O96217 = biological target: UniProt O96217
UniProt Q8IAM0 = biological target: UniProt Q8IAM0
UniProt Q8IK91 = biological target: UniProt Q8IK91
UniProt Q8I608 = biological target: UniProt Q8I608
UniProt O96278 = biological target: UniProt O96278
UniProt C0H4X1 = biological target: UniProt C0H4X1
UniProt Q8I6S4 = biological target: UniProt Q8I6S4
UniProt Q8IL19 = biological target: UniProt Q8IL19
UniProt Q8IDJ8 = biological target: UniProt Q8IDJ8
UniProt Q8IDT0 = biological target: UniProt Q8IDT0
UniProt P50250 = biological target: UniProt P50250
Chain of UniProt P50250 (P50250 whole entry): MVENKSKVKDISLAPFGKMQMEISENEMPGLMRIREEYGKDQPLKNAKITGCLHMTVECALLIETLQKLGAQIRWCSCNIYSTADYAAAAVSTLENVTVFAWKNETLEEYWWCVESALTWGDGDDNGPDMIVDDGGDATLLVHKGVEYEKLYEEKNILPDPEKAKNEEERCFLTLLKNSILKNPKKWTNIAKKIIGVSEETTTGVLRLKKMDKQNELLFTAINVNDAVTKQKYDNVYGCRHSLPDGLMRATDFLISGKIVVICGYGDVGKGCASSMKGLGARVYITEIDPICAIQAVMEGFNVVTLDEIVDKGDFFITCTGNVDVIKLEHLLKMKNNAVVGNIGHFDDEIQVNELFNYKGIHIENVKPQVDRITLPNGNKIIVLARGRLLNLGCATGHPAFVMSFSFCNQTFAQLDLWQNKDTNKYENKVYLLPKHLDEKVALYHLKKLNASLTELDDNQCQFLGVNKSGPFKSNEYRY

UniProt C0H4K8 = biological target: UniProt C0H4K8
UniProt Q8I348 = biological target: UniProt Q8I348
UniProt Q8ID96 = biological target: UniProt Q8ID96
UniProt Q8IDG9 = biological target: UniProt Q8IDG9
UniProt Q8IIF4 = biological target: UniProt Q8IIF4
UniProt Q7K6B1 = biological target: UniProt Q7K6B1
UniProt Q8I510 = biological target: UniProt Q8I510
UniProt Q8IID2 = biological target: UniProt Q8IID2
UniProt Q8IIQ6 = biological target: UniProt Q8IIQ6
UniProt Q8IM55 = biological target: UniProt Q8IM55
UniProt Q8IKM5 = biological target: UniProt Q8IKM5
UniProt Q8IKR1 = biological target: UniProt Q8IKR1
UniProt Q8I5S7 = biological target: UniProt Q8I5S7
UniProt Q6ZMA7 = biological target: UniProt Q6ZMA7
Chain of UniProt Q6ZMA7 (Q6ZMA7 whole entry): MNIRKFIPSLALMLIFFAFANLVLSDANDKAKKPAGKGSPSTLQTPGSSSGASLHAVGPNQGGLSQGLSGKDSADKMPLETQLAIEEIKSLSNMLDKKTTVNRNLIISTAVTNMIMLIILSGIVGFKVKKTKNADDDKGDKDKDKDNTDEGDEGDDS

UniProt Q8ILH5 = biological target: UniProt Q8ILH5
UniProt Q8IM23 = biological target: UniProt Q8IM23
UniProt Q8IL22 = biological target: UniProt Q8IL22
UniProt Q8IEK3 = biological target: UniProt Q8IEK3
UniProt Q8I3W0 = biological target: UniProt Q8I3W0
UniProt Q6ZLZ9 = biological target: UniProt Q6ZLZ9
UniProt Q8IJD0 = biological target: UniProt Q8IJD0
UniProt Q8ID72 = biological target: UniProt Q8ID72
UniProt Q8I501 = biological target: UniProt Q8I501
UniProt C0H4Y6 = biological target: UniProt C0H4Y6
UniProt Q8IL13 = biological target: UniProt Q8IL13

Measured: pIC50
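Further: native unpurified kinases from lysate captured on beads bearing immobilized kinase inhibitors, with bead-bound kinases quantified by mass spectrometry across compound doses.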

O=c1[nH]c2ccc(Cl)cc2c(NC2CN3CCC2CC3)c1-c1nc2ccccc2[nH]1 (stereo unspecified) [CHIR-124]
< 4.70: all assays above

Reference: the supplement of paper PMC13386468
